Measured values as given in patent US10844023B2 (Washington University, priority 2017, dated 2020).
Each block holds one compound with its values, some of them ahead of it. * marks the point of attachment. FITC = O=C1OC2(c3ccc(O)cc3Oc3cc(O)ccc32)c2ccc(NC(=S)*)cc21

What was measured:
[1] = Solubility of library compounds in DMSO; format: physicochemical; conditions: stock concentration of 10 mM in DMSO
Description: A pharmacophore model was generated based on the interactions of HR1 and HR2 domains in the calculated structural model of Mfn2 in the closed conformation. The key features included hydrophobic interactions involving Mfn2 HR1: Val372 and Met376, and aromatic interactions and hydrogen bonding involving Mfn2 HR1 His380. […] A library comprising ˜14 million commercially available compounds was prepared in silico and evaluated using PHASE to fit these criteria. Top ranked hits were clustered, and filtered based on pharmacological properties using Qikprop. The top 55 (see TABLE 4) commercially available small molecules conforming to the model were selected for functional screening and purchased in 1 mg aliquots. Each compound was dissolved to a stock concentration of 10 mM in DMSO and applied to Mfn2 null MEFs overnight at a final concentration of […]. Eleven of the library members were not soluble in DMSO at the required concentration. The 44 fully soluble compounds were screened in groups of 6 at a time for cytotoxicity (calcein AM/ethidium homodimer staining; ThermoFisher LIVE/DEAD Assay cat #L3224) and fusogenicity (increase in mitochondrial aspect ratio; MitoTracker Orange staining) compared to cells treated overnight with […] of the parent HR1 367-384 mitofusin agonist peptide (positive control) or vehicle (DMSO). Images were acquired by confocal microscopy. Each compound was scored for fusogenicity (see e.g., FIG. 24A) and % cell death (see e.g., FIG. 24B). Pharmacophore model fit generally correlated with actual fusogenic activity (Pearson correlation coefficient r=0.214; see e.g., FIG. 24A, inset; TABLE 4).

MFN2 HR2 = molecular target: T1, MFN2 HR2 (Homo sapiens, UniProt O95140); experiment: HR1 peptide-HR2 target binding assay; conditions: FITC minipeptide 374-384 at HR2 binding site
T1 construct: host or cells: synthetic peptide (note in the listing); immobilised on Ni-NTA resin
T1 sequence (O95140 with tags, fused parts or gaps limits assumed): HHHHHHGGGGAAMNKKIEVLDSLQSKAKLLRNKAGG
From the text: The Mfn-derived fusion-promoting and -inhibiting mini-peptides (simulated to obtain the chemical Mfn agonists in TABLE 1 and TABLE 2) were modified from amino acid heptad repeats (HR) in the HR1 domain and predicted to interact with their counterparts in the carboxyl terminus HR2 domain within the Mfn stalk region (see e.g., FIG. 1, top panel). A high-throughput binding assay was designed whereby the target HR2 peptide sequences, modified to include amino terminal 6×His tags and Gly linkers, were bonded to Ni-chelate resin (20 μg/ml) and used as immobilized “receptor” for amino-FITC-tagged Mfn2 374-384 (agonist ligand) in which the Ser analogous to Ser378 was replaced with Asp to confer the negative charge essential for activity. For antagonist studies the ligand was amino-FITC-tagged Mfn2 406-418. The FITC peptide ligands are suspended at 1 mM in 30% DMSO, 70% water (to minimize spontaneous aggregation) and diluted into binding buffer (de-ionized water) to a final concentration of 25 μM in the presence or absence of competing compound. Dose-dependent loss of resin-bound FITC signal (485 nm excitation/538 nm emission) measured in a 96 well spectrofluorometer represents binding of compound to its HR2 target (see e.g., FIG. 10, FIG. 11). Either the ligand peptide or the receptor peptide can be modified to represent mutations, variations, or posttranslational modifications of Mfn2. […]
Target HR2 peptide sequence modified to include amino terminal 6×His tags and Gly linkers, were bonded to Ni-NTA resin (4.4 μg/ml) (Quiagen) and used as immobilized “receptor” for amino-FITC-tagged Mfn2 374-384 (ligand) in which the Ser analogous to Ser378 was replaced with Asp to confer the negative charge essential for activity. […] Resin-bound FITC signal (485 nm excitation/538 nm emission) measured in a 96 well spectrofluorometer (Spectramax M5e, Molecular Devices) represented binding to HR2 target. Competition binding isotherms were plotted and IC50 values calculated using Prism 7 (GraphPad).

[2] = Human liver microsome stability assay; format: in vitro ADME; conditions: human liver microsomes (FIG. 49)
Description: FIG. 49 is a series of structures and a graph showing dose-response and human liver microsomal stability data for fusogenic compounds from FIG. 22. […] T1/2 values are from human liver microsome stability assay.
(§1) Plasma protein binding was measured using equilibrium dialysis; % bound=(1-[free compound in dialysate]/[total compound in retentate])×100. Plasma stability of […] compound in clarified freeze-thawed plasma was assessed by LC-MS/MS of supernatants after protein precipitation; 120 min data are reported for studies including 0, 10, 30, 60, and 120 min. Microsome stability of […] compound in liver microsomes (0.5 mg/ml) after 0, 5, 10, 20, 30, 60 min. incubation was assessed by LC/MS/MS of reaction extracts.

Mfn2 null MEFs = experiment: Mitochondrial elongation (aspect ratio) fusogenicity assay; format: cell-based, mouse; parameters: % long compare to B: dose or concentration left out as unconfirmed; conditions: for Fusogenic activity: mitochondrial elongation / fusion; for % long compare to B: mitochondrial elongation relative to Cpd B (B01 = 100), compound overnight as printed (FIG. 48); for % long compare to B / Aspect ratio (MEAN ± SEM): Mfn2 null MEFs; for Aspect ratio (MEAN ± SEM): overnight, treatment with 1 μM compound (footnote); for Fusogenicity Rank: rank order of aspect ratio among 44 soluble library compounds
[3] = Liver microsome stability; format: in vitro ADME
Description: as §1

[4] = Plasma protein binding (equilibrium dialysis); format: in vitro ADME
Description: as §1

Compound: COc1cc(Cl)c(C)cc1N1C(=O)[C@@H]2C[C@H]1CN2Cc1cccn1-c1ncccn1 [(1S,4S)-2-(4-chloro-2-methoxy-5-methylphenyl)-5-{[1-(pyrimidin-2-yl)-1H-pyrrol-2-yl]methyl}-2,5-diazabicyclo[2.2.1]heptan-3-one]
Solubility in DMSO at required concentration [1]: Insol- uble

Compound: Cc1ccc(C(=O)C(C)Sc2nnc3c(=O)n(-c4ccc(Br)cc4)ccn23)cc1C (stereo not shown) [7-(4-bromophenyl)-3-{[1-(3,4-dimethylphenyl)-1-oxopropan-2-yl]sulfanyl}-7H,8H-[1,2,4]triazolo[4,3-a]pyrazin-8-one]
Solubility in DMSO at required concentration [1]: Insol- uble

Compound: Cn1c(SCC(=O)Nc2sc3c(c2C(N)=O)CCC3)nnc1-c1ccccc1 [1-B1, 2-{2-[(4-methyl-5-phenyl-4H-1,2,4-triazol-3-yl]sulfanyl]acetamido}-4H,5H,6H-cyclopenta[b]thiophene-3-carboxamide]
Resistance to liver microsomal degradation vs Cpd B [2]: greater resistance to liver microsomal degradation
Fusogenic activity (Mfn2 null MEFs): more potent
% long compare to B (Mfn2 null MEFs): 107%

Compound: CCn1c(SCC(=O)Nc2sc3c(c2C(N)=O)CCC3)nnc1C1CC1 [1-G11, 2-{2-[(5-cyclopropyl-4-ethyl-4H-1,2,4-triazol-3-yl)sulfanyl]acetamido}-4H,5H,6H-cyclopenta[b]thiophene-3-carboxamide]
Resistance to liver microsomal degradation vs Cpd B [2]: greater resistance to liver microsomal degradation
Fusogenic activity (Mfn2 null MEFs): more potent
% long compare to B (Mfn2 null MEFs): 99%

Compound: Cc1ccc(C(=O)C(C)Sc2nnc3c(=O)n(-c4ccccc4)ccn23)cc1C (stereo not shown) [3-{[1-(3,4-dimethylphenyl)-1-oxopropan-2-yl]sulfanyl}-7-phenyl-7H,8H-[1,2,4]triazolo[4,3-a]pyrazin-8-one]
Solubility in DMSO at required concentration [1]: Insol- uble

Compound: CCC(Sc1nc2cc(OC)c(OC)cc2c2nc(CCn3nc(C)cc3C)nn12)C(=O)Nc1ccc(F)cc1 (stereo not shown) [2-({2-[2-(3,5-dimethyl-1H-pyrazol-1-yl)ethyl]-8,9-dimethoxy-[1,2,4]triazolo[1,5-c]quinazolin-5-yl]sulfanyl)-N-(4-fluorophenyl)butanamide]
Solubility in DMSO at required concentration [1]: Insol- uble

Compound: CC(=O)NC12CC3CC(C1)CC(C(=O)NCCSCc1ccc(C)cc1)(C3)C2 [3-acetamido-N-(2-{[(4-methylphenyl)methyl]sulfanyl}ethyl)adamantane-1-carboxamide]
Solubility in DMSO at required concentration [1]: Insol- uble

Compound: Cc1cc(C)nc(SCC(C)Cn2c(N3CCC(C(N)=O)CC3)nc3c2c(=O)[nH]c(=O)n3C)n1 (stereo not shown) [1-(7-{3-[(4,6-dimethylpyrimidin-2-yl)sulfanyl]-2-methylpropyl}-3-methyl-2,6-dioxo-2,3,6,7-tetrahydro-1H-purin-8-yl)piperidine-4-carboxamide]
Solubility in DMSO at required concentration [1]: Insol- uble

Compound: Cn1c(Cc2cccs2)nnc1SCC(=O)Nc1sc2c(c1C(N)=O)CCC2 [1-C11, 2-[2-({4-methyl-5-[(thiophen-2-yl)methyl]-4H-1,2,4-triazol-3-yl}sulfanyl)acetamido]-4H,5H,6H-cyclopenta[b]thio-phene-3-carboxamide]
% long compare to B (Mfn2 null MEFs): 1%

Compound: O=C(CSCC(=O)N1CCCc2ccccc21)Nc1ccccc1 [drawing 249, 2-{[2-oxo-2-(1,2,3,4-tetrahydroquinolin-1-yl)ethyl]sulfanyl}-N-phenylacetamide]
Aspect ratio (MEAN ± SEM) (Mfn2 null MEFs): 2.4 ± 0.4
Fusogenicity Rank (Mfn2 null MEFs): 44

Compound: CCC(C)C1N=C2c3ccccc3N=C(SC(C)C(=O)Nc3cc(OC)cc(OC)c3)N2C1=O (stereo not shown) [drawing 234, 2-{[2-(butan-2-yl)-3-oxo-2H,3H-imidazo[1,2-c]quinazolin-5-yl]sulfanyl}-N-(3,5-dimethoxyphenyl)propanamide]
Aspect ratio (MEAN ± SEM) (Mfn2 null MEFs): 3.2 ± 0.3
Fusogenicity Rank (Mfn2 null MEFs): 32

Compound: CCCc1noc(C(C)Sc2nc3cc(C)ccc3[nH]2)n1 (stereo not shown) [C02, 5-methyl-2-{[1-(3-propyl-1,2,4-oxadiazol-5-yl)ethyl]sulfanyl}-1H-1,3-benzodiazole]
% long compare to B (Mfn2 null MEFs): 14%

Further lines, with some results ahead:

Solubility in DMSO at required concentration [1]: Insol- uble
Compound: Cc1ccc(CSCCNC(=O)C2CCN(c3ccc4nnc(C(F)(F)F)n4n3)CC2)cc1 [N-(2-{[(4-methylphenyl)methyl]sulfanyl}ethyl)-1-[3-(trifluoromethyl)-[1,2,4]triazolo[4,3-b]pyridazin-6-yl]piperidine-4-carboxamide]

Binding to / competition at HR2 target (MFN2 HR2): did not
Compound: Ser^378 minipeptide: "(NH3) FITC-GGGG-AVRGIMDSLHMAAR-GG (COOH) (FITC labeled Ser peptide) (SEQ ID NO: 26)" ({FITC}-GGGGAVRGIMDSLHMAARGG-OH)

Solubility in DMSO at required concentration [1]: Insol- uble
Compound: CCc1nnc(SC(CC)C(=O)N(CC)c2cccc(C)c2)c2cc3occc3n12 (stereo not shown) [N-ethyl-2-({12-ethyl-5-oxa-1,10,11-triazatricyclo[6.4.0.0^2,6]dodeca-2(6),3,7,9,11-pentaen-9-yl}sulfanyl)-N-(3-methylphenyl)butanamide]

Solubility in DMSO at required concentration [1]: Insol- uble
Compound: CC(Sc1nc(C2CC2)nc2c1c(=O)[nH]c(=O)n2C1CC1)C(=O)NCC1CCCCC1 (stereo not shown) [N-(cyclohexylmethyl)-2-({2,8-dicyclopropyl-5,7-dioxo-5H,6H,7H,8H-pyrimido[4,5-d][1,3]diazin-4-yl}sulfanyl)propanamide]

Binding to / competition at HR2 target (MFN2 HR2): did not
Compound: Ala^378 minipeptide: "(NH3) FITC-GGGG-AVRGIMDALHMAAR-GG (COOH) (FITC labeled Ala peptide) (SEQ ID NO: 28)" ({FITC}-GGGGAVRGIMDALHMAARGG-OH)

Solubility in DMSO at required concentration [1]: Insol- uble
Compound: Cc1ccc(SC(C)C(=O)Nc2ccc(NS(=O)(=O)c3ccc4c(c3)OCCCO4)cc2)cc1 (stereo not shown) [N-[4-(3,4-dihydro-2H-1,5-benzodioxepine-7-sulfonamido)phenyl]-2-[(4-methylphenyl)sulfanyl]propanamide]

Liver microsome stability [3]: stability in the liver microsome assay
Plasma protein binding [4]: low plasma protein binding
Compound: Cn1c(CCCNC(=O)NC2CCOCC2)nnc1C1CC1 [Mitolityn-6, 1-(3-(5-cyclopropyl-4-methyl-4H-1,2,4-triazol-3-yl)propyl)-3-(tetrahydro-2H-pyran-4-yl)urea]
Fusogenic activity (Mfn2 null MEFs): highest potency

Solubility in DMSO at required concentration [1]: Insol- uble
Compound: Cc1cc(NC(=O)C(C)SCC(=O)Nc2ccc(NC(C)c3ccccc3)cc2)no1 (stereo not shown) [N-(5-methyl-1,2-oxazol-3-yl)-2-{[({4-[(1-phenylethyl)amino]phenyl}carbamoyl)methyl]sulfanyl}propanamide]
